Reference: US11274131B2, “IgM-mediated receptor clustering and cell modulation” (MAYO FOUNDATION FOR MEDICAL EDUCATION AND RESEARCH, priority 2007, dated 2022)

Test system: mouse bone marrow-derived DC
Test: Immunoblot of DAP12 and Syk phosphorylation in mouse DC
Type: cell-based
Protocol: FIG. 6A to 6C is a series of histograms and pictures showing that TREM-2 is recruited into the MTAb-induced cap on mouse DC and expression of TREM-2 is important for MTAb-induced phosphorylation of the adapter DAP-12 and the protein kinase Syk. FIG. 6A: six day cultures of bone marrow-derived mouse DC were differentiated in GM-CSF and IL-4 were tagged with antibodies specific for the class II molecule IA^b (25-9-17-APC) and for TREM-2 (237916-PE) for 15 minutes prior to stimulation with the MTAb B7-DC XAb (open histograms) or with isotype control antibody sHIgM39 (filled histograms). Cells were fixed in 0.1% paraformaldehyde prior to analysis by flow cytometry. FRET between PE and APC was assessed collecting light emitted by APC following excitation of PE with a 488 nm laser. Expression of TREM-2 on the cells was assessed by staining with 237916-PE antibody alone (open histogram) or isotype control antibody (closed histogram, bottom-right panel). For FIG. 6B, mouse bone marrow-derived DC were transduced on day 2 of culture with a retrovirus expressing an […] specific for TREM-2 or a control virus containing a scrambled sequence. On day 5 of culture, the transduced cells were not treated (0′ time), activated with the isotype control antibody sHIgM39, or activated with B7-DC XAb for 5 minutes. DAP12 was immunoprecipitated from cell lysates with antibody MC457, resolved by electrophoresis, and the blotted filters were probed with the phosphotyrosine-specific antibody 4G10. FIG. 6C: the lysates used in the experiments from FIG. 6B were immunoprecipitated with the Syk-specific antibody (4D10) and analyzed by western blot for the presence of phosphotyrosine.
For transducing DC with the virus, 1 ml of supernatant containing the scrambled virus or shDNA containing dominant negative TREM-2 virus was mixed with 2 ml of RPMI. Cytokines were added to a final concentration of 10 ng/ml murine GM-CSF and 1 ng/ml murine IL-4 at day 2 of DC culture. […]
In experiments involving assessment of the phosphorylation status of various protein kinases using whole cell lysate, dendritic cells of mouse or human origin or Jurkat cells were stimulated at the indicated times with control antibody or B7-DC XAb, and were lysed on ice for 10 minutes in 1 ml buffer containing 20 mM Tris-HCl, 40 mM NaCl, 5 mM EDTA, 50 mM NaF, 30 mM Na4P2O7, 0.1% BSA, 1 mM Na3VO4, 1 mM PMSF, 5 μg/ml aprotinin, 10 μg/ml leupeptin, and 1% Triton X-100. […] Tyrosine-phosphorylated proteins were detected using the anti-phosphotyrosine specific antibody, 4G10, followed by goat anti-mouse IgG coupled to Horse Radish Peroxidase (Santa Cruz Biotechnology) and the SuperSignal detection system (Pierce Biotechnology, Rockford, Ill.). […]

In the case of “B7-DC XAb: human monoclonal IgM from a Waldenstrom's macroglobulinemia patient that binds and cross-links B7-DC on DC”, the “phosphorylation of DAP12 and Syk” value (DC transduced with scrambled shDNA) is reported as “proceeded in the same manner”, the “phosphorylation of DAP12 and Syk” value (DC transduced with shDNA for TREM-2) is reported as “absence of phosphorylation of DAP12 and Syk” and the “phosphorylation of DAP12 and Syk” value (TREM-2 KO DC) is reported as “not induced”. For the same substance, the “phosphorylation of DAP12 and Syk” value (wild type DC) was “readily induced”.
